Measured values: patent publication US20100286101A1, “PHARMACEUTICAL COMPOSITION INCLUDING A CORTICOSTEROID AND A VITAMIN D ANALOG HAVING IMPROVED STABILITY” (priority 2009, published 2010)

Assay: Solvent attributes (dipolar, H-bonding, miscibility in mineral oil)
Format: physicochemical

| Dipolar | H-bonding | Miscibility in oil (mineral oil) | Compound |
| --- | --- | --- | --- |
| Yes | Yes | Yes | Sorbitan Sesquioleate |
| Yes | Yes | No | Polysorbate 80 |
| Yes | Yes | No | CC(O)CO (stereo not drawn) [Propylene Glycol] |
